Reference: ChEMBL document CHEMBL1201862, “PubChem BioAssay data set” (2004)
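Grown in 96-well plates, cells were treated for 48 hours with each compound at five concentrations. Insufficient inhibition: endpoint recorded as highest concentration tested. Abbreviation: GI50, concentration required for 50% inhibition of growth.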 Calls of active or inactive are those of the source. No stated cut-off is given here; in the data, active = GI50 up to about 1.1 µM and inactive = higher.

How the values were obtained:
Assay in all cases: inhibition of tumour cell growth, NCI panel, 48 h
[1] = tested on: 786-0
[2] = tested on: A498
[3] = tested on: A549
[4] = tested on: ACHN
[5] = tested on: CAKI-1
[6] = tested on: CCRF-CEM
[7] = tested on: COLO 205
[8] = tested on: DU-145
[9] = tested on: EKVX
[10] = tested on: HCC 2998
[11] = tested on: HCT-116
[12] = tested on: HCT-15
[13] = tested on: HL-60
[14] = tested on: HOP-62
[15] = tested on: HOP-92
[16] = tested on: HT-29
[17] = tested on: Hs-578T
[18] = tested on: IGROV-1
[19] = tested on: K562
[20] = tested on: KM12
[21] = tested on: LOX IMVI
[22] = tested on: M14
[23] = tested on: MCF7
[24] = tested on: MDA-MB-231
[25] = tested on: MDA-MB-435
[26] = tested on: MDA-N
[27] = tested on: MOLT-4
[28] = tested on: Malme-3M
[29] = tested on: NCI-H226
[30] = tested on: NCI-H23
[31] = tested on: NCI-H460
[32] = tested on: NCI-H522
[33] = tested on: NCI/ADR-RES
[34] = tested on: OVCAR-3
[35] = tested on: OVCAR-4
[36] = tested on: OVCAR-5
[37] = tested on: OVCAR-8
[38] = tested on: PC-3
[39] = tested on: RPMI-8226
[40] = tested on: RXF 393
[41] = tested on: SF-268
[42] = tested on: SF-295
[43] = tested on: SF-539
[44] = tested on: SK-MEL-28
[45] = tested on: SK-MEL-2
[46] = tested on: SK-MEL-5
[47] = tested on: SK-OV-3
[48] = tested on: SN12C
[49] = tested on: SNB-19
[50] = tested on: SNB-75
[51] = tested on: SR
[52] = tested on: SW-620
[53] = tested on: T47D
[54] = tested on: TK-10
[55] = tested on: U-251
[56] = tested on: UACC-62
[57] = tested on: UO-31
[58] = tested on: UACC-257

CN1C=COC1N=C1CCCCC1 (stereo not drawn)
GI50 [1]: > 100 µM (inactive) | GI50 [2]: > 100 µM (inactive) | GI50 [3]: > 100 µM (inactive) | GI50 [4]: > 100 µM (inactive) | GI50 [5]: 3.74 µM (inactive) | GI50 [6]: > 100 µM (inactive) | GI50 [7]: > 100 µM (inactive) | GI50 [8]: > 100 µM (inactive) | GI50 [9]: > 100 µM (inactive) | GI50 [10]: > 100 µM (inactive) | GI50 [11]: > 100 µM (inactive) | GI50 [12]: > 100 µM | GI50 [13]: > 100 µM (inactive) | GI50 [14]: > 100 µM (inactive) | GI50 [15]: 75.7 µM (inactive) | GI50 [16]: > 100 µM (inactive) | GI50 [17]: > 100 µM (inactive) | GI50 [18]: > 100 µM (inactive) | GI50 [19]: > 100 µM (inactive) | GI50 [20]: > 100 µM (inactive) | GI50 [21]: > 100 µM (inactive) | GI50 [22]: > 100 µM (inactive) | GI50 [23]: > 100 µM (inactive) | GI50 [24]: > 100 µM (inactive) | GI50 [25]: > 100 µM (inactive) | GI50 [26]: > 100 µM (inactive) | GI50 [27]: > 100 µM (inactive) | GI50 [28]: > 100 µM (inactive) | GI50 [29]: > 100 µM (inactive) | GI50 [30]: > 100 µM (inactive) | GI50 [31]: > 100 µM (inactive) | GI50 [32]: > 100 µM (inactive) | GI50 [33]: > 100 µM (inactive) | GI50 [34]: > 100 µM (inactive) | GI50 [35]: > 100 µM (inactive) | GI50 [36]: > 100 µM (inactive) | GI50 [37]: > 100 µM (inactive) | GI50 [38]: > 100 µM (inactive) | GI50 [39]: > 100 µM (inactive) | GI50 [40]: > 100 µM (inactive) | GI50 [41]: > 100 µM (inactive) | GI50 [42]: > 100 µM (inactive) | GI50 [43]: > 100 µM (inactive) | GI50 [44]: > 100 µM (inactive) | GI50 [45]: > 100 µM (inactive) | GI50 [46]: > 100 µM (inactive) | GI50 [47]: > 100 µM (inactive) | GI50 [48]: > 100 µM (inactive) | GI50 [49]: 4.02 µM (inactive) | GI50 [50]: 41.4 µM (inactive) | GI50 [51]: > 100 µM (inactive) | GI50 [52]: 3.3 µM (inactive) | GI50 [53]: > 100 µM (inactive) | GI50 [54]: > 100 µM (inactive) | GI50 [55]: > 100 µM (inactive) | GI50 [56]: > 100 µM (inactive) | GI50 [57]: 50.9 µM (inactive)

COC(=O)C(Cc1ccccc1I)C1=CCC2(CC1)OCCO2 (stereo not drawn)
GI50 [1]: 34.3 µM (inactive) | GI50 [2]: 74.1 µM (inactive) | GI50 [3]: 22.4 µM (inactive) | GI50 [4]: 36.6 µM (inactive) | GI50 [5]: 70 µM (inactive) | GI50 [6]: 41.7 µM (inactive) | GI50 [7]: 28.4 µM (inactive) | GI50 [8]: 25 µM (inactive) | GI50 [9]: 47.6 µM (inactive) | GI50 [10]: 31.6 µM (inactive) | GI50 [12]: 26.1 µM | GI50 [13]: 18.7 µM (inactive) | GI50 [14]: 28.9 µM (inactive) | GI50 [15]: 28.2 µM (inactive) | GI50 [16]: 31.8 µM (inactive) | GI50 [17]: 26.6 µM (inactive) | GI50 [18]: 41 µM (inactive) | GI50 [19]: 27.3 µM (inactive) | GI50 [20]: 22.9 µM (inactive) | GI50 [21]: 23.3 µM (inactive) | GI50 [22]: 22.3 µM (inactive) | GI50 [23]: 27.7 µM (inactive) | GI50 [24]: 54.5 µM (inactive) | GI50 [25]: 20 µM (inactive) | GI50 [26]: 28.6 µM (inactive) | GI50 [27]: 21.4 µM (inactive) | GI50 [28]: 22.9 µM (inactive) | GI50 [29]: 79.3 µM (inactive) | GI50 [30]: 26.4 µM (inactive) | GI50 [31]: 33.3 µM (inactive) | GI50 [32]: 21.4 µM (inactive) | GI50 [33]: 18.6 µM (inactive) | GI50 [34]: 20.8 µM (inactive) | GI50 [35]: 37.2 µM (inactive) | GI50 [36]: 11.3 µM (inactive) | GI50 [37]: 35.2 µM (inactive) | GI50 [38]: 26.9 µM (inactive) | GI50 [39]: 30 µM (inactive) | GI50 [40]: 14.2 µM (inactive) | GI50 [41]: 41.3 µM (inactive) | GI50 [42]: 29.2 µM (inactive) | GI50 [43]: 63.8 µM (inactive) | GI50 [44]: 48.9 µM (inactive) | GI50 [45]: 25.5 µM (inactive) | GI50 [46]: 16.8 µM (inactive) | GI50 [47]: 36.9 µM (inactive) | GI50 [49]: 25.4 µM (inactive) | GI50 [50]: 21.2 µM (inactive) | GI50 [51]: 18 µM (inactive) | GI50 [52]: 44.4 µM (inactive) | GI50 [53]: 12.3 µM (inactive) | GI50 [54]: 31.6 µM (inactive) | GI50 [55]: 45.4 µM (inactive) | GI50 [58]: 27.1 µM (inactive) | GI50 [56]: 20 µM (inactive) | GI50 [57]: 23.3 µM (inactive)

Cc1ccccc1C1CC(=O)CC(c2ccccc2C)C12C(=O)NC(=S)NC2=O (stereo not drawn)
GI50 [1]: 34.9 µM (inactive) | GI50 [2]: 22.9 µM (inactive) | GI50 [3]: 29.5 µM (inactive) | GI50 [4]: 18.4 µM (inactive) | GI50 [5]: 58.2 µM (inactive) | GI50 [6]: 25 µM (inactive) | GI50 [7]: 19.5 µM (inactive) | GI50 [8]: 41.7 µM (inactive) | GI50 [9]: 47.2 µM (inactive) | GI50 [10]: 9.64 µM (inactive) | GI50 [11]: 20.5 µM (inactive) | GI50 [12]: 20.7 µM | GI50 [13]: 21 µM (inactive) | GI50 [14]: 27.5 µM (inactive) | GI50 [15]: 26.1 µM (inactive) | GI50 [16]: 22.3 µM (inactive) | GI50 [17]: 29.1 µM (inactive) | GI50 [19]: 39.5 µM (inactive) | GI50 [20]: 22.1 µM (inactive) | GI50 [21]: 17.2 µM (inactive) | GI50 [22]: 24.3 µM (inactive) | GI50 [23]: 32 µM (inactive) | GI50 [24]: 31.3 µM (inactive) | GI50 [25]: 20 µM (inactive) | GI50 [26]: 23.6 µM (inactive) | GI50 [27]: 42.4 µM (inactive) | GI50 [28]: 25.6 µM (inactive) | GI50 [29]: 20 µM (inactive) | GI50 [30]: 35.2 µM (inactive) | GI50 [31]: 19.4 µM (inactive) | GI50 [33]: 30.3 µM (inactive) | GI50 [34]: 29 µM (inactive) | GI50 [35]: 37.5 µM (inactive) | GI50 [36]: 50.1 µM (inactive) | GI50 [38]: 22.3 µM (inactive) | GI50 [39]: 12.6 µM (inactive) | GI50 [40]: 19.6 µM (inactive) | GI50 [41]: 32.7 µM (inactive) | GI50 [42]: 24.8 µM (inactive) | GI50 [43]: 20.9 µM (inactive) | GI50 [44]: 20.2 µM (inactive) | GI50 [45]: 13.4 µM (inactive) | GI50 [46]: 17.2 µM (inactive) | GI50 [47]: 37.2 µM (inactive) | GI50 [48]: 26.4 µM (inactive) | GI50 [49]: 43.4 µM (inactive) | GI50 [50]: 20.8 µM (inactive) | GI50 [51]: 37.2 µM (inactive) | GI50 [52]: 28.5 µM (inactive) | GI50 [53]: 42.1 µM (inactive) | GI50 [54]: 39.4 µM (inactive) | GI50 [55]: 30.7 µM (inactive) | GI50 [58]: 22 µM (inactive) | GI50 [56]: 18.7 µM (inactive) | GI50 [57]: 17.9 µM (inactive)
